{
  "source": "paper PMC545074",
  "about": "“The two neutrophil members of the formylpeptide receptor family activate the NADPH-oxidase through signals that differ in sensitivity to a gelsolin derived phosphoinositide-binding peptide” (BMC Cell Biology, 2004)",
  "key": {"[1]": {"molecular_target": "T1, FPRL1 (Homo sapiens, UniProt P25090)", "T1 construct": "Neutrophil granulocytes were isolated from buffy coats obtained from healthy adults; endogenous in cells; host or cells: human neutrophil granulocytes from buffy coats of healthy adults", "T1 sequence (P25090 1-351)": "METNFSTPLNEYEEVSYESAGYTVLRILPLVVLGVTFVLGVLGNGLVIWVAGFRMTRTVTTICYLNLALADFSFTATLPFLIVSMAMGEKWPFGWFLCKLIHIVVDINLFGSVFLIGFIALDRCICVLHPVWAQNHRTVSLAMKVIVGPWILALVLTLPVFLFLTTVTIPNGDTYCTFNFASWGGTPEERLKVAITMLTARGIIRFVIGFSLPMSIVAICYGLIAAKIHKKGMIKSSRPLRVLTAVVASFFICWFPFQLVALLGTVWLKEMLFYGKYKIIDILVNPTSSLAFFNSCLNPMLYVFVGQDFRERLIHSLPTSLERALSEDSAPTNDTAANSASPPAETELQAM", "experiment": "Neutrophil NADPH-oxidase activity (superoxide anion release, isoluminol-enhanced chemiluminescence) induced through FPRL1", "type": "cell-based", "conditions": "for Effect on WKYMVM induced NADPH-oxidase activity (superoxide production): FPRL1 stimulated by WKYMVM, concentration of test substance not given, antagonists and rhodamine: data not shown", "method": "(§1) Neutrophil granulocytes were isolated from buffy coats obtained from healthy adults. After dextran sedimentation at 1 × g, hypotonic lysis of the remaining erythrocytes, and centrifugation in a Ficoll-Paque gradient, the neutrophils were washed twice and resuspended (1 × 10^7 /ml) in Krebs-Ringer phosphate buffer containing glucose (10 mM), Ca^2+ (1 mM), and Mg^2+ (1.5 mM) (KRG; pH 7.3). The cells were stored on melting ice and used within 120 min of preparation.\n(§2) Neutrophil production and release of superoxide anions was measured by means of an isoluminol-enhanced chemiluminescence (CL) assay. The CL activity was measured in a six-channel Biolumat LB 9505 apparatus (Berthold Co., Wildbad, Germany), using disposable 4-ml polypropylene tubes with a 900-μl reaction mixture containing 10^5–10^6 neutrophils, horseradish peroxidase (4 U) and isoluminol (20 μM) with and without cytochalasin B or PBP10. The measuring tubes were equilibrated for 5 to 10 minutes at 37°C and the cells were activated by addition of a receptor specific peptide agonist, fMLF for FPR and WKYMVM for FPRL1. The light emission was recorded continuously. Details about the CL technique are given in [45]."}, "[2]": {"molecular_target": "T1, FPRL1", "experiment": "Cytosolic calcium mobilization in neutrophils (Fura-2 fluorescence), FPRL1 agonist WKYMVM", "type": "cell-based", "method": "as §1\n(§3) Neutrophils at a density of 2 × 10^7/ml in Ca^2+-free KRG supplemented with bovine serum albumin (BSA, 0.1%) were incubated with the acetoxymethylated derivative fura-2/AM (2 μM) at room temperature for 30 minutes. The cells were washed twice and resuspended in KRG, adjusted to 2 × 10^7/ml and kept protected from light on ice until use. Cells with or without PBP10 were equilibrated for 5 minutes at 37°C, after which the peptide agonist was added. The fura-2 fluorescence was followed with a luminescence spectrometer (LS50B; Perkin Elmer Corp.) using excitation wavelengths of 340 nm and 380 nm, and an emission wavelength of 510 nm and the [Ca^2+]i was calculated as described earlier."}, "[3]": {"tested_on": "FPR", "experiment": "Neutrophil NADPH-oxidase activity (superoxide anion release, isoluminol-enhanced chemiluminescence) induced through FPR", "type": "cell-based, human", "conditions": "for Effect on fMLF induced NADPH-oxidase activity (superoxide production): FPR stimulated by fMLF, concentration of test substance not given, data not shown", "method": "as §1, §2"}, "[4]": {"tested_on": "FPR", "experiment": "Cytosolic calcium mobilization in neutrophils (Fura-2 fluorescence), FPR agonist fMLF", "type": "cell-based, human", "method": "as §1, §3"}, "[5]": {"molecular_target": "T1, FPRL1", "experiment": "Mobilization of CR3 to the neutrophil cell surface (FACS), WKYMVM induced", "type": "cell-based", "conditions": "PBP10 1 μM at 37°C for 5 minutes, then WKYMVM 100 nM for 10 minutes, four independent experiments", "method": "as §1\n(§4) The exposure of CR3 (CD11b/CD18) on the neutrophil cell surface was assessed by immunostaining and FACS-analysis. Cells challenged with peptide agonists with or without PBP10 were fixed with ice-cold paraformaldehyde and washed with FACSwash (PBS, 0.02% NaN3), after which the cells were incubated at 4°C with phycoerythrin-conjugated anti-CR3 antibodies (CD11b; Becton Dickinson 10 μl/10^6 cells) before analysis using a FACScan (Becton Dickinson, Mountain View, CA)."}, "[6]": {"tested_on": "FPR", "experiment": "Mobilization of CR3 to the neutrophil cell surface (FACS), fMLF induced", "type": "cell-based, human", "conditions": "PBP10 1 μM at 37°C for 5 minutes, then fMLF 100 nM for 10 minutes, four independent experiments", "method": "as §1, §4"}, "[7]": {"set-up": "method as in earlier work", "conditions": "cited from earlier work"}, "[8]": {"tested_on": "plasma membrane of neutrophils and other cells", "conditions": "cited from earlier work"}, "[9]": {"molecular_target": "T1, FPRL1", "set-up": "method as in PMID 15147563", "conditions": "cited from earlier work"}, "[10]": {"tested_on": "FPR", "set-up": "method as in PMID 15147563", "conditions": "cited from earlier work"}, "[11]": {"tested_on": "PKC", "experiment": "Neutrophil NADPH-oxidase activity induced by the receptor independent PKC activator PMA", "type": "cell-based, human", "conditions": "neutrophils incubated 120 minutes with PTX 500 ng/ml, then PMA 100 nM"}, "[12]": {"conditions": "human neutrophils, 100 nM, Fura-2"}},
  "note": "Where two headings read alike, the source gives them in different places. Where a SMILES comes first, the peptide text is derived from it. Where no end group is shown, it is not given here. The star is where a group is joined. RhodamineB = CCN(CC)c1ccc2c(-c3ccccc3C(=O)*)c3ccc(=[N+](CC)CC)cc-3oc2c1",
  "data": [
    {"compound": "Trp-Lys-Tyr-Met-Val-Met-NH2 [WKYMVM, FPRL1 specific hexapeptide agonist]", "values": [
      {"measurement": "Agonist-induced oxidative burst (release of superoxide anions) through FPRL1", "setting": "[1]; human neutrophils, 100 nM and 20 nM shown in Fig 1A", "value": "robust oxidative burst"},
      {"measurement": "Agonist-induced change in cytosolic calcium through FPRL1", "setting": "[2]; [12]", "value": "rapid and transient increase"}
    ]},
    {"compound": "Rh-VKGRRG (RhodamineB-VKGRRG) [truncated rhodamine labeled peptide]", "values": [
      {"measurement": "IC50", "setting": "[1]; human neutrophils treated with the peptide prior to activation with WKYMVM, superoxide release by isoluminol chemiluminescence, 37°C, Fig 1D three independent experiments, read-out: IC50 value for the WKYMVM induced NADPH-oxidase response", "value": 1, "unit": "µM"}
    ]},
    {"compound": "CCN(CC)c1ccc2c(-c3ccccc3C(=O)N[C@@H](CCC(N)=O)C(=O)N[C@@H](CCCNC(=N)N)C(=O)N[C@@H](CC(C)C)C(=O)N[C@@H](Cc3ccccc3)C(=O)N[C@@H](CCC(N)=O)C(=O)N[C@H](C(=O)N[C@@H](CCCCN)C(=O)NCC(=O)N[C@@H](CCCNC(=N)N)C(=O)N[C@@H](CCCNC(=N)N)C(=O)O)C(C)C)c3ccc(=[N+](CC)CC)cc-3oc2c1", "note": "[PBP10, rhodamine-B-QRLFQVKGRR] (RhodamineB-QRLFQVKGRR-OH; C-terminus assumed)", "values": [
      {"measurement": "IC50", "setting": "[1]", "value": 0.05, "unit": "µM"},
      {"measurement": "Effect on NADPH-oxidase activity induced by WKYMVM in the presence of cytochalasin B", "setting": "[1]; cytochalasin B 2.5 μg/ml, WKYMVM 100 nM", "value": "largely inhibited"},
      {"measurement": "Effect on WKYMVM induced NADPH-oxidase activity (superoxide production)", "setting": "[1]; human neutrophils", "value": "totally inhibited"},
      {"measurement": "Effect on the FPR-mediated NADPH-oxidase response in the presence of cytochalasin B", "setting": "[3]; cytochalasin B 2.5 μg/ml, fMLF 100 nM, PBP10 5 μM (higher concentrations required)", "value": "only partly inhibited"},
      {"measurement": "Effect on the fMLF induced NADPH-oxidase activity", "setting": "[3]; human neutrophils, PBP10 at concentrations up to 10 μM prior to activation with fMLF, isoluminol chemiluminescence", "value": "no effect"},
      {"measurement": "Effect on the calcium response induced by WKYMVM", "setting": "[2]; PBP10 1 μM, 5 minutes at 37°C prior to WKYMVM 100 nM, Fura-2, representative experiment", "value": "did not alter"},
      {"measurement": "Effect on the calcium response induced by fMLF", "setting": "[4]; PBP10 1 μM, 5 minutes at 37°C prior to fMLF 100 nM, Fura-2, representative experiment", "value": "did not alter"},
      {"measurement": "Effect on WKYMVM induced secretory response (mobilization of CR3 to the cell surface)", "setting": "[5]", "value": "blocked"},
      {"measurement": "Effect on FPR induced granule mobilization (CR3 exposure)", "setting": "[6]", "value": "without effect"},
      {"measurement": "PIP2 binding", "setting": "[7]", "value": "PIP2 binding capacity"},
      {"measurement": "Membrane permeability (ability to cross the plasma membrane)", "setting": "[8]; neutrophils and other cells", "value": "membrane permeable"}
    ]},
    {"compound": "COC[C@H]1OC(=O)c2coc3c2[C@@]1(C)C1=C(C3=O)[C@@H]2CCC(=O)[C@@]2(C)C[C@H]1OC(C)=O", "note": "[Wortmannin]", "values": [
      {"measurement": "Effect of the PI3K inhibitor on oxidase activity induced by WKYMVM", "setting": "[1]; neutrophils incubated with different concentrations at 37°C for 30 minutes, then WKYMVM 100 nM, representative experiment", "value": "largely inhibited"},
      {"measurement": "Effect of the PI3K inhibitor on oxidase activity induced by fMLF", "setting": "[3]; neutrophils incubated with different concentrations at 37°C for 30 minutes, then fMLF 100 nM, representative experiment", "value": "largely inhibited"}
    ]},
    {"compound": "C=C1[C@@H](C)[C@H]2[C@H](Cc3ccccc3)NC(=O)[C@]23OC(=O)/C=C/[C@H](O)CCC[C@@H](C)C/C=C/[C@H]3[C@@H]1O", "note": "[cytochalasin B]", "values": [
      {"measurement": "Effect of cytochalasin B on the transient rise in intracellular calcium induced by active FPRL1", "setting": "[2]; data not shown", "value": "not affected"},
      {"measurement": "Effect of cytochalasin B on the transient rise in intracellular calcium induced by active FPR", "setting": "[4]; data not shown", "value": "not affected"},
      {"measurement": "Effect of cytochalasin B on the neutrophil response to FPRL1 agonists", "setting": "[9]", "value": "augmented and prolonged"},
      {"measurement": "Effect of cytochalasin B on the neutrophil response to FPR agonists", "setting": "[10]", "value": "augmented and prolonged"}
    ]},
    {"compound": "N-formyl-Met-Leu-Phe [fMLF, prototype FPR agonist]", "values": [
      {"measurement": "Agonist-induced oxidative burst (release of superoxide anions) through FPR", "setting": "[3]", "value": "robust oxidative burst"},
      {"measurement": "Agonist-induced change in cytosolic calcium through FPR", "setting": "[4]; [12]", "value": "rapid and transient increase"}
    ]},
    {"compound": "QRLFQVKGRR", "values": [
      {"measurement": "Effect of the unconjugated peptide on the WKYMVM induced neutrophil oxidase activity", "setting": "[1]; 1 μM final concentration, 37°C for 5 minutes, then WKYMVM 100 nM", "value": "no effect"},
      {"measurement": "PIP2 binding", "setting": "[7]", "value": "same PIP2-binding characteristics as PBP10"},
      {"measurement": "Membrane permeability (ability to cross the plasma membrane)", "setting": "[8]", "value": "lacks the ability to cross the plasma membrane"}
    ]},
    {"compound": "pertussis toxin", "values": [
      {"measurement": "Effect of pertussis toxin on the FPRL1 mediated oxidase response", "setting": "[1]; neutrophils incubated 120 minutes with PTX 500 ng/ml, then WKYMVM 100 nM", "value": "inhibited"},
      {"measurement": "Effect of pertussis toxin on the FPR mediated oxidase response", "setting": "[3]; neutrophils incubated 120 minutes with PTX 500 ng/ml, then fMLF 100 nM", "value": "inhibited"},
      {"measurement": "Effect of pertussis toxin on oxidase activity induced by PMA", "setting": "[11]", "value": "no reduction"}
    ]},
    {"compound": "WRWWWW [FPRL1 specific antagonist]", "values": [
      {"measurement": "Effect on WKYMVM induced NADPH-oxidase activity (superoxide production)", "setting": "[1]; human neutrophils", "value": "totally inhibited"},
      {"measurement": "Effect on fMLF induced NADPH-oxidase activity (superoxide production)", "setting": "[3]; human neutrophils", "value": "not affected"}
    ]},
    {"compound": "cyclosporine H", "values": [
      {"measurement": "Effect on WKYMVM induced NADPH-oxidase activity (superoxide production)", "setting": "[1]; human neutrophils", "value": "without effect"},
      {"measurement": "Effect on fMLF induced NADPH-oxidase activity (superoxide production)", "setting": "[3]; human neutrophils", "value": "totally inhibited"}
    ]}
  ]
}
